Laboratory results from ChEMBL document CHEMBL1201862, “PubChem BioAssay data set” (2004).
Activity calls are given as the source filed them.

How the values were obtained:
[1] = target: T1, Trace amine-associated receptor 1 (Homo sapiens, UniProt Q96RJ0); experiment: Fluorescence-based cell-based high throughput dose response assay to identify agonists of the human trace amine associated receptor 1 (TAAR1).; type: functional
T1 sequence (Q96RJ0 whole entry): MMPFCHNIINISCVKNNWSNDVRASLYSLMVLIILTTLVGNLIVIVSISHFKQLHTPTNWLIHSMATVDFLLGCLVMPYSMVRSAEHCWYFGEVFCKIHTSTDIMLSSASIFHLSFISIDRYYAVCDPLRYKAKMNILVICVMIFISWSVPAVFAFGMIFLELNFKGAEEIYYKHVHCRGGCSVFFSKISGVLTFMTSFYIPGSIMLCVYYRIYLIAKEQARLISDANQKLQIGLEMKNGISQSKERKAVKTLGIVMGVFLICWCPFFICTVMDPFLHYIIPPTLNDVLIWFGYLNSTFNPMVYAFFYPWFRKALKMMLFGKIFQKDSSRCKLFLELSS

[2] = target: T1, Trace amine-associated receptor 1; experiment: Counterscreen for agonists of the human trace amine associated receptor 1 (hTAAR1): Fluorescence-based cell-based high throughput dose response assay to identify hTAAR1 agonist that also desensitize TAAR1 receptor response.; type: functional
[3] = cells; type: functional, cell-based
[4] = cells; type: functional, cell-based; remark: listed apart in the source
[5] = target: 5-hydroxytryptamine receptor 2A (Mus musculus, UniProt P35363); type: functional, cell-based;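 note: CHO-K1 cells with tagged receptor and beta-arrestin; agonist potency measured as compound-induced activation of the receptor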
[6] = target: Mu-type opioid receptor (Homo sapiens, UniProt P35372); type: functional, cell-based;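 note: U2OS cells with beta-arrestin recruitment to OPRM1 by beta-gal complementation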
[7] = HeLa cell cytotoxicity, dose response, cytotoxicity control for MgcRacGAP inhibitor project (AID 624300); type: functional
[8] = target: Induced myeloid leukemia cell differentiation protein Mcl-1 (Homo sapiens, UniProt Q07820); type: functional
[9] = target: T2, Rac GTPase-activating protein 1 (Homo sapiens, UniProt Q9H0H5); experiment: MgcRacGAP GTPase-activating activity inhibitors, confirmation, biochemical, ADP Hunter fluorescence, primary and confirmatory (AID 624330); type: functional
T2 sequence (Q9H0H5 whole entry): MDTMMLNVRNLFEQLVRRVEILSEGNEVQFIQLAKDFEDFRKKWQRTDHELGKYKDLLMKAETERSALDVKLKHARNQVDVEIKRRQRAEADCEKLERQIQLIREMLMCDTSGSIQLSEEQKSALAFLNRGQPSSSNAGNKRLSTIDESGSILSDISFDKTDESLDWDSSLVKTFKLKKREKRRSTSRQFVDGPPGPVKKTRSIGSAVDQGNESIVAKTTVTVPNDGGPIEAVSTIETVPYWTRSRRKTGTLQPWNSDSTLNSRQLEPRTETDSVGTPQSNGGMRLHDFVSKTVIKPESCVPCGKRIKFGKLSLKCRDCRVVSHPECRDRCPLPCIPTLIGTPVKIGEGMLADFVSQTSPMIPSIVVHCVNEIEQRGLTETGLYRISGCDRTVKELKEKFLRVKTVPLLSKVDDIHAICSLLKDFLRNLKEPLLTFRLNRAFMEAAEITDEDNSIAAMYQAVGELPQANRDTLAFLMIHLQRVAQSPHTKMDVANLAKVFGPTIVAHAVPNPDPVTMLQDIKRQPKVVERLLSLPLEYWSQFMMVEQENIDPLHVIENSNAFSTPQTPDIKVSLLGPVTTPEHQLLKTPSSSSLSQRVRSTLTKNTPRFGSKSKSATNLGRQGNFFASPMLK

[10] = target: T3, Fructose-bisphosphate aldolase (Mycobacterium tuberculosis, UniProt P9WQA3); experiment: Fluorescence-based biochemical high throughput dose response assay for inhibitors of the fructose-bisphosphate aldolase (FBA) of M. tuberculosis.; type: functional
T3 sequence (P9WQA3 whole entry): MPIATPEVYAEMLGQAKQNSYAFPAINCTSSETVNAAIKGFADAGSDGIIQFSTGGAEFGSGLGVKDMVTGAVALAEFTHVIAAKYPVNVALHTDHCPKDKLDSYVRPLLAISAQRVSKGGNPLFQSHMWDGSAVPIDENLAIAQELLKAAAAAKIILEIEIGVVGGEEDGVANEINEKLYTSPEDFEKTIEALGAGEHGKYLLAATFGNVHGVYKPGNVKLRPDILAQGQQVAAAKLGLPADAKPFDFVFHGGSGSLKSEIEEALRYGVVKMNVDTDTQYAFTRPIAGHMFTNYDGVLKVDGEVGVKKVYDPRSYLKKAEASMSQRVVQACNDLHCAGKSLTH

[11] = P. falciparum Dd2 growth inhibitors, dose response, SYBR Green, dry powder samples, set 9 (AID 1159568); type: functional, cell-based
[12] = target: T4, Oxysterols receptor LXR-beta (Homo sapiens, UniProt P55055); type: functional, cell-based;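 note: agonist activity at LXR measured by a cell-based luminescence readout across a dose range, run as a counterscreen for daf-12 agonists; HEK293 cells with Gal4-LXR fusion and GAL4-driven luciferase reporter; potency for activation of Gal4-LXR reporter so compounds are agonists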
T4 sequence (P55055 whole entry): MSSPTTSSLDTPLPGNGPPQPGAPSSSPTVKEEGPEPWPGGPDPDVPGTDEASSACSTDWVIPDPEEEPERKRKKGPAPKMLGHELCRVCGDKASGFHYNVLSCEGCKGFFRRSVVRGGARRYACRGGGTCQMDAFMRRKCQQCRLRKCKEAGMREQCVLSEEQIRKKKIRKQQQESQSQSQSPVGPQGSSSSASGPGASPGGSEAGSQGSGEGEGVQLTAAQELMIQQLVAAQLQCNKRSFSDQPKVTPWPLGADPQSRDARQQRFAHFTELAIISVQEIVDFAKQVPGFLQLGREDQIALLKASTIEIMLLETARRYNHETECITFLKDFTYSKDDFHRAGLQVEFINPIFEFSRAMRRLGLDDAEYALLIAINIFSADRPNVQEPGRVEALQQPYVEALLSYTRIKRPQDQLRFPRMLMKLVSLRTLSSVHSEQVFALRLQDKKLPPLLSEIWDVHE

[13] = intracellular Trypanosoma cruzi inhibitors in host cells – cell-based, plate reader, cherry-pick samples, set 3, dose response (AID 651818); type: functional;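 note: compounds incubated with infected cells for about four days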
[14] = target: Beta-galactosidase (Escherichia coli, UniProt Q8VNN2); experiment: Dose response counterscreen for EBI2 assay utilizing the enzyme, b-galactosidase.; type: functional
[15] = off-target signal loss in HeLa-CEM21 co-culture – HeLa F-luc CTL cells, cherry-picked, counter-screen for HIV-1 Env fusion inhibitor project, dose response (AID 652040); type: functional, cell-based;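 note: potency for signal decrease marking cytotoxic or nonspecific inhibition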
[16] = ZM109 Env clade C HIV-1 fusion inhibitors, dose response, HeLa effector, CEM target cells, luciferase, cherry-pick (AID 652058); type: functional, cell-based
[17] = CEM21 lymphoblast cell cytotoxicity, dose response, cytotoxicity control for viral fusion inhibitor project, CellTiter-Glo luminescence, cherry-picked (AID 652042); type: functional, cell-based;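 note: potency for signal decrease meaning cytotoxicity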
[18] = THP-1 cell cytotoxicity, dose response, cytotoxicity control for non-replicating M. tuberculosis project (AID 489025); type: functional
[19] = inhibitors of HIV Env-driven cell fusion, dose response, cherry-pick (AID 652057); type: functional, cell-based
[20] = inhibitors of clade B AD8 Env fusion, dose response, cell-based, cherry-pick (AID 652062); type: functional;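 note: luciferase signal from cell-cell fusion driven by HIV-1 clade B AD8 Env; potency is for inhibitors of fusion seen as a drop in luminescence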
[21] = target: T5, Short transient receptor potential channel 4 (Mus musculus, UniProt Q9QUQ5); experiment: mouse TRPC4 channel activators, dose response, cell-based, HEK293 TRPC4/mu-opioid, Fluo-4 calcium (AID 434937); type: functional
T5 sequence (Q9QUQ5 whole entry): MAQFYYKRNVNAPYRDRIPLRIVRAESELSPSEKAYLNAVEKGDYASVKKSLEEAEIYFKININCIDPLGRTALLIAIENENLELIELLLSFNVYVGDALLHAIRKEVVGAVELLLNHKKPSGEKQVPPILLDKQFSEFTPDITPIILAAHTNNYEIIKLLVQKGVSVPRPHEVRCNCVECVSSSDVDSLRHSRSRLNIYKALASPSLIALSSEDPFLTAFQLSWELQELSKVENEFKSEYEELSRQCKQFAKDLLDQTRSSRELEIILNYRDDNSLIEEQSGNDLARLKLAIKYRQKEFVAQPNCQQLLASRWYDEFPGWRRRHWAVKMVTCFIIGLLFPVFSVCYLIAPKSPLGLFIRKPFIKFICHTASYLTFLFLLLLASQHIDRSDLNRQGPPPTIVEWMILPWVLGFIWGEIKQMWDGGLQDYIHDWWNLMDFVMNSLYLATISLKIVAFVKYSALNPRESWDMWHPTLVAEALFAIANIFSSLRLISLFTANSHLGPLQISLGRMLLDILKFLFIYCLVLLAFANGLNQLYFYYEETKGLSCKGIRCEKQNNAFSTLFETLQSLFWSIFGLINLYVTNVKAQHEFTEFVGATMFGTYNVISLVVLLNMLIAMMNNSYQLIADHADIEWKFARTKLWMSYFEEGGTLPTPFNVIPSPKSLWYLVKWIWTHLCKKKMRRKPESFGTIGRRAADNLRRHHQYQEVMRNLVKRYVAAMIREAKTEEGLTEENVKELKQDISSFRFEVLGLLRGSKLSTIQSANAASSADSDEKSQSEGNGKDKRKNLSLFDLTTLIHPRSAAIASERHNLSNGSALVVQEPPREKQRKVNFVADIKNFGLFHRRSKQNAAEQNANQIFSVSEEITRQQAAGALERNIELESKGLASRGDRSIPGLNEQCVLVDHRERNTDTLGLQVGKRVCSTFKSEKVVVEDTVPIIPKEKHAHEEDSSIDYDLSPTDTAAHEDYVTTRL

[22] = HepG2 cell cytotoxicity, dose response, cytotoxicity control for Shn3 inhibitor project, CellTiter-Glo, cherry-picked (AID 624134); type: functional, cell-based
[23] = cytotoxicity toward NIH3T3 fibroblasts, dose response, counter-screen, cell-based, ATP luminescence, mouse fibroblasts (AID 2010); type: functional;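 note: cells exposed to compound for about 90 hours before reading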
[24] = control 3'UTR Renilla luciferase suppression, dose response, counter-screen for Shn3 inhibitor project, cell-based, Clone20-Shn3RL, cherry-picked (AID 624133); type: functional
[25] = Shn3 3'UTR reporter inhibitors, dose response, cell-based, Clone20 osteoblasts, firefly luciferase, cherry-picked (AID 624132); type: functional;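 note: firefly luciferase luminescence from reporter carrying the Shn3 3'UTR in osteoblasts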
[26] = inhibitors of intracellular T. cruzi replication, confirmation, NIH3T3 host cells, beta-gal luminescence (AID 2044); type: functional, cell-based;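 note: intracellular parasites grown in NIH/3T3 mouse fibroblasts as host cells; luminescent beta-galactosidase reporter signal from transgenic T. cruzi replicating inside host cells; inhibitors lower the luminescence signal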
[27] = Luminescence Cell-Based Dose Retest to Confirm Inhibitors of Cancer Stem Cells. [Related pubchem assays (depositor defined):AID2717, AID2721]; type: functional; conditions: Homo sapiens

Beta-galactosidase, sequence (Q8VNN2 whole entry, the tested form may be a part): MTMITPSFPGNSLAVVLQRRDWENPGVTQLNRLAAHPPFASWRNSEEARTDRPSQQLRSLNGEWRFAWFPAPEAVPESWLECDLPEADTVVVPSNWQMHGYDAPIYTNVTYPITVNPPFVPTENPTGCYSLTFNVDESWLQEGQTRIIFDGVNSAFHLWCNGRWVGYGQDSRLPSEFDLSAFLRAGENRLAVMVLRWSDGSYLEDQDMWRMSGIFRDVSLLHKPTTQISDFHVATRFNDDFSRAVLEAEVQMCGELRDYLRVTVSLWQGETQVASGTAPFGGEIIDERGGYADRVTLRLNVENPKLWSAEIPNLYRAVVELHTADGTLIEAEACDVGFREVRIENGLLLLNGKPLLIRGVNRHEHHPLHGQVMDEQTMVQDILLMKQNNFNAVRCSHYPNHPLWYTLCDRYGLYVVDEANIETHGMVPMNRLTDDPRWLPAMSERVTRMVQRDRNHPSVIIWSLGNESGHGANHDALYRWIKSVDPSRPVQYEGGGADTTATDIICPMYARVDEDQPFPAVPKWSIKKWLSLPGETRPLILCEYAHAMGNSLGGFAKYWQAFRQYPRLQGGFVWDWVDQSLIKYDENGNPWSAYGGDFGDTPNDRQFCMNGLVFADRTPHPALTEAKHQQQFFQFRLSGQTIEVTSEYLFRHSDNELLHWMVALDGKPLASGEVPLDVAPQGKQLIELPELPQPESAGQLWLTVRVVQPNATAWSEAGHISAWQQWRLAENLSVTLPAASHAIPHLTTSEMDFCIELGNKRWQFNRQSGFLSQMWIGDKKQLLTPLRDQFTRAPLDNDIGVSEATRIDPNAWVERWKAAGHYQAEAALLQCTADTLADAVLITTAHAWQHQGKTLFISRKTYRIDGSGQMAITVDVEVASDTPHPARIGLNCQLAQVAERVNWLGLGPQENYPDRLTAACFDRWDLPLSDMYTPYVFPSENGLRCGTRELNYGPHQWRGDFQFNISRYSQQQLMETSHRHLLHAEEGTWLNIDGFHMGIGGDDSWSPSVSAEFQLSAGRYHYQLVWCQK
5-hydroxytryptamine receptor 2A, sequence (P35363 whole entry): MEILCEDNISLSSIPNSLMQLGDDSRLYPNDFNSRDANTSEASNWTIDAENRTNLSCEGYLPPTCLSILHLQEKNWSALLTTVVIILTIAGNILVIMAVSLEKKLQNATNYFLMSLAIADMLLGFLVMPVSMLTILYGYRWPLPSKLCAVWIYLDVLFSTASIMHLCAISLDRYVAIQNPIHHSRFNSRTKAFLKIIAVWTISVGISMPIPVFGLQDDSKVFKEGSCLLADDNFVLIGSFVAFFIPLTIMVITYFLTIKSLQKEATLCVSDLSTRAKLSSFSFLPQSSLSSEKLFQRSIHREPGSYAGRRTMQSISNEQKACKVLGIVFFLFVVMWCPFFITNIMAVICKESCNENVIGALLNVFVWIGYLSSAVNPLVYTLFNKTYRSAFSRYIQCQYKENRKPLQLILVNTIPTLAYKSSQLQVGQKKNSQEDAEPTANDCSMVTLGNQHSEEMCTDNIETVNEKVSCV
Mu-type opioid receptor, sequence (P35372 whole entry): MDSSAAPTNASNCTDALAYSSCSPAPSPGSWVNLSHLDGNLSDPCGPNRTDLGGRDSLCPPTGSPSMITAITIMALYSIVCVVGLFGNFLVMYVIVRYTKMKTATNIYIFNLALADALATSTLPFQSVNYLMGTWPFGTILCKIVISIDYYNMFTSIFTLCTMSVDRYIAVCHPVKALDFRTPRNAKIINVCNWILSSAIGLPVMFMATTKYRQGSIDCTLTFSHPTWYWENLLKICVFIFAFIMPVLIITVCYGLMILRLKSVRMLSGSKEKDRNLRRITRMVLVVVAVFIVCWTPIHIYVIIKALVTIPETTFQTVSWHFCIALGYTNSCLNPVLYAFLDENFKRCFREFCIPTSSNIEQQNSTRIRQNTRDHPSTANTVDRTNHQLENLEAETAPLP
Induced myeloid leukemia cell differentiation protein Mcl-1, sequence (Q07820 whole entry): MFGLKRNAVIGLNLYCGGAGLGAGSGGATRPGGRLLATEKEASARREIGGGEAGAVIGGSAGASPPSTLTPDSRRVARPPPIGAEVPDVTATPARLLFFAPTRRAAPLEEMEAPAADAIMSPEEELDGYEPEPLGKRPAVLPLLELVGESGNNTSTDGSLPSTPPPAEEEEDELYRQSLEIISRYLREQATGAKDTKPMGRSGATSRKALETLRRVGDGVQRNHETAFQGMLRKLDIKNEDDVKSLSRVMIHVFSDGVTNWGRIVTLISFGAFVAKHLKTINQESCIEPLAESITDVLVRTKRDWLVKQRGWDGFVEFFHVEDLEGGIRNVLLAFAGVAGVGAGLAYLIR

## Nc1sc2c(c1C(=O)NCCc1ccccc1)CCCC2
[1]
  EC50: 1.35 µM (active)
[2]
  IC50: 4.88 µM (active)
[3]
  EC50: > 29.9 µM (inactive)
[4]
  IC50: > 29.9 µM (inactive)

## O=C(c1cccc(C(=O)N(c2ccccn2)C2CCCCC2)c1)N(c1ccccn1)C1CCCCC1
[5]
  EC50: 76.1 µM (inactive)
[6]
  EC50: 92.5 µM (inactive)

## Clc1cccc(N/N=C/c2ccc(N3CCOCC3)s2)c1
[7]
  CC50: 83.7 µM (active)
[8]
  IC50: 13.4 µM (active)
[9]
  IC50: 71.3 µM (active)

## CCOC(=O)N1CCN(CC(O)COC2CC(C)CCC2C(C)C)CC1 (stereo not given)
[10]
  IC50: > 9.99 µM (inactive)

## O=C(C[C@H]1C[C@@H]2c3cc(NC(=O)c4ccc5c(c4)OCO5)ccc3O[C@@H]2[C@@H](CO)O1)NCc1ccc(Oc2ccccc2)cc1
[11]
  AC50: 28.6 µM (active)

## Cc1ccnc(NC(=O)CCNS(=O)(=O)c2ccc(C)c(C)c2)c1
[12]
  EC50: > 67.6 µM (inactive)

## COc1cccc(-n2cc(CNCc3cn(C)nc3-c3ccccc3F)cn2)c1
[5]
  EC50: 0.772 µM (active)
[6]
  EC50: 92.5 µM (inactive)

## C[C@@H]1CN([C@@H](C)CO)C(=O)c2cccc(NC(=O)c3ccc(-c4nccs4)cc3)c2O[C@H]1CN(C)C(=O)Nc1ccc(C(F)(F)F)cc1
[11]
  AC50: 6.3 µM (active)
[13]
  AC50: 3.55 µM (active)

## CN(C)C=O.O=C(/C=C/c1cccc(F)c1)Nc1ccc(S(=O)(=O)Nc2ncccn2)cc1
[10]
  IC50: > 9.99 µM (inactive)

## Oc1ccc(CN2CCN(c3ncccn3)CC2)cc1
[5]
  EC50: 0.496 µM (active)
[6]
  EC50: 92.4 µM (inactive)

## CN(C)c1ccc2c(c1)[C@@H]1C[C@@H](CC(=O)NC3CCCCC3)O[C@@H](CO)[C@@H]1O2
[11]
  AC50: 20.2 µM (active)

## C/C(=N/NC(=O)c1cc(C(C)C)n[nH]1)c1cccs1
[12]
  EC50: > 67.6 µM (inactive)

## O=[N+]([O-])c1ccc2c(c1)Nc1nc3ccccc3nc1N2
[12]
  EC50: > 67.5 µM (inactive)

## CCCC[C@@H]1CNCCN1CCc1cccc2ccccc12
[1]
  EC50: 4.01 µM (active)
[2]
  IC50: 3.52 µM (active)
[3]
  EC50: > 29.9 µM (inactive)
[4]
  IC50: > 29.9 µM (inactive)

## O=C(COc1ccc(Br)cc1)N1CCN(Cc2ccc3c(c2)OCO3)CC1
[14]
  IC50: > 80 µM (inactive)

## COc1ccc(C2Nc3ccccc3C(=O)N2NS(C)(=O)=O)c(OC)c1 (stereo not given)
[10]
  IC50: > 1.11 µM (active)

## COc1cc2c(cc1NC(=S)NC(=O)/C=C/c1ccco1)oc1ccccc12
[14]
  IC50: > 80 µM (inactive)

## Cc1cc(OCCOCCNCc2ccccc2)ccc1C(C)C
[15]
  AC50: 2.26 µM (active)
[16]
  AC50: 1.86 µM (active)
[17]
  AC50: 45.2 µM (active)
[18]
  CC50: > 40 µM (active)
[19]
  AC50: 1.55 µM (active)
[20]
  AC50: 4.8 µM (active)

## CCOC(=O)C1(CCOc2ccccc2)CCN(C(=O)c2ccc(-n3cccn3)cc2)CC1
[14]
  IC50: > 80 µM (inactive)

## COc1ccc(CN2CCC(N(CCc3ccccc3)Cc3ccccc3)CC2)c(OC)c1
[7]
  CC50: 56.3 µM (active)
[21]
  EC50: 5.31 µM (active)
[22]
  AC50: 13.6 µM (active)
[23]
  EC50: > 60 µM (inconclusive)
[24]
  AC50: 8.85 µM (active)
[25]
  AC50: 8.1 µM (active)
[26]
  EC50: 1.49 µM (active)
[27]
  AC50: 5.9 µM (active)
[9]
  IC50: 96.6 µM (active)
